The results in this text go back to ChEMBL document CHEMBL1153328, “5-Aminomethylbenzimidazoles as potent ITK antagonists” (Bioorg Med Chem Lett, 2009).

Series [1] deals with Insulin receptor (Homo sapiens, UniProt P06213). Briefly: Inhibition of IRK.
Series [2] concerns T-cell. Briefly: Inhibition of anti-CD3 and anti-CD28 monoclonal antibody-stimulated IL2 secretion in human CD4+ T cells. Format: functional, cell-based.
Series [3] has as its target T1, Tyrosine-protein kinase ITK/TSK (Homo sapiens, UniProt Q08881).
T1 sequence (Q08881 whole entry): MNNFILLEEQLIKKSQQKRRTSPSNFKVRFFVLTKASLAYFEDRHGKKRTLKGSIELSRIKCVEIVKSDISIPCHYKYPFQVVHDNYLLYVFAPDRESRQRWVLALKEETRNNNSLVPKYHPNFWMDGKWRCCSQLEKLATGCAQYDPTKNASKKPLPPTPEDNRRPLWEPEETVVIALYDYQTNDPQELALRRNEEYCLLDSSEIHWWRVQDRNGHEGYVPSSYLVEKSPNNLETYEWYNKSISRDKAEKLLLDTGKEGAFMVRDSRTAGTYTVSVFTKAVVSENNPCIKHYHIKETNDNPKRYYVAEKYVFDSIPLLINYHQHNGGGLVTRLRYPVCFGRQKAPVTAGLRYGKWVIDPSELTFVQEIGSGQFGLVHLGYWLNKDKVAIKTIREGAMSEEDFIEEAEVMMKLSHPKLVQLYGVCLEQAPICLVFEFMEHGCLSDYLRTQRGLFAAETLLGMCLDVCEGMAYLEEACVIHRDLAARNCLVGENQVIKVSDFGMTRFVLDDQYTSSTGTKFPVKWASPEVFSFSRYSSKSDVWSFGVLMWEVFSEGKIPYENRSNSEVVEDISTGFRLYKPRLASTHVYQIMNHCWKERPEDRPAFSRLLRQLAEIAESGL
Briefly: Binding affinity to ITK by DELFIA-based molecular assay.

Series [4] addresses T1, Tyrosine-protein kinase ITK/TSK. Briefly: Inhibition of ITK in presence of 1 mM ATP.
Series [5] has the same target. Briefly: Antagonist activity at human ITK expressed in BTK deficient DT40 cells assessed as inhibition of B cell receptor-stimulated calcium influx. Format: functional, cell-based.
The nature of series [6]: Solubility at pH 7. Format: physicochemical. Conditions: buffer.
For series [7], the system named is Blood. Description: Inhibition of staphylococcal entertoxin B-stimulated IL2 secretion in human whole blood. Format: functional, tissue-based.
Series [8] in a line: Protein binding in plasma by dialysis method. Format: ADME, cell-free. The note with it: read-out: PPB (converted).
Series [9] can be described thus: Terminal half life in Sprague-Dawley rat at 1 mg/kg, iv. The format is ADME, organism-based. Set-up: dose 1 mg/kg, route intravenous. The note with it: in vivo, read-out: beta t1/2 (converted).
Series [10] is described as follows: Volume of distribution at steady state in Sprague-Dawley rat at 1 mg/kg, iv. The format is ADME, organism-based. Set-up: dose 1 mg/kg, route intravenous. The note with it: in vivo, read-out: Vdss.
Series [11] in a line: Plasma clearance in Sprague-Dawley rat at 1 mg/kg, iv. The format is ADME, organism-based. Set-up: dose 1 mg/kg, route intravenous.
Series [12] in a line: AUC (0 to infinity) in Sprague-Dawley rat at 1 mg/kg, iv. Conditions: plasma. Set-up: time infinity, dose 1 mg/kg, route intravenous. The format is ADME, organism-based.
The nature of series [13]: Tmax in Sprague-Dawley rat at 10 mg/kg, po. The format is ADME, organism-based. Set-up: dose 10 mg/kg, route oral. The note with it: in vivo.
The nature of series [14]: Cmax in Sprague-Dawley rat at 10 mg/kg, po. Format: ADME, organism-based. On the set-up: dose 10 mg/kg, route oral. The note with it: in vivo.
Series [15] is described as follows: AUC (0 to infinity) in Sprague-Dawley rat at 10 mg/kg, po. The format is ADME, organism-based. Set-up: time infinity, dose 10 mg/kg, route oral. The note with it: plasma.
A short description of series [16]: Oral bioavailability in Sprague-Dawley rat at 10 mg/kg. The format is ADME, organism-based. The note with it: in vivo.
Series [17] relates to Mus musculus. Description: Inhibition of anti-CD3-stimulated IL2 production in po dosed BALB/c mouse administered 5 hrs before anti-CD3 challenge measured after 3 hrs. The format is functional, organism-based.
Series [18] relates to Mus musculus. Description: Inhibition of anti-CD3-stimulated IL4 production in po dosed BALB/c mouse administered 5 hrs before anti-CD3 challenge measured after 3 hrs. Format: functional, organism-based.
Series [19] is described as follows: Terminal plasma concentration in BALB/c mouse at 15 mg/kg, po after 8 hrs. Format: ADME, organism-based. On the set-up: dose 15 mg/kg, route oral. The note with it: read-out: Cp(T).
Series [20] is described as follows: Terminal plasma concentration in BALB/c mouse at 5 mg/kg, po after 8 hrs. The format is ADME, organism-based. Set-up: dose 5 mg/kg, route oral. Conditions: read-out: Cp(T).
Series [21] is described as follows: Terminal plasma concentration in BALB/c mouse at 1.5 mg/kg, po after 8 hrs. The format is ADME, organism-based. Set-up: dose 1.5 mg/kg, route oral. Conditions: read-out: Cp(T).

The structures appear in SMILES notation. Values after ≈ are worked out from the molar mass of the structure shown. Bounds are passed on as bounds.

The IC50 is the concentration at which inhibition is half-maximal. By solubility is commonly meant the dissolved amount per volume that the medium holds. High values mean a readily soluble substance, low ones a poorly soluble substance. As usually defined, the clearance is the rate of elimination divided by the concentration. One may read the AUC(0-inf) as total exposure, with the tail of the curve extrapolated. A higher AUC(0-inf) goes with more exposure. One may read the Tmax as the time from dosing to the highest level. The Cmax is the highest concentration seen after dosing. The bioavailability is dose-corrected exposure relative to a reference, in per cent. A higher bioavailability goes with good availability.

Sequence of Insulin receptor (P06213 28-758 limits assumed): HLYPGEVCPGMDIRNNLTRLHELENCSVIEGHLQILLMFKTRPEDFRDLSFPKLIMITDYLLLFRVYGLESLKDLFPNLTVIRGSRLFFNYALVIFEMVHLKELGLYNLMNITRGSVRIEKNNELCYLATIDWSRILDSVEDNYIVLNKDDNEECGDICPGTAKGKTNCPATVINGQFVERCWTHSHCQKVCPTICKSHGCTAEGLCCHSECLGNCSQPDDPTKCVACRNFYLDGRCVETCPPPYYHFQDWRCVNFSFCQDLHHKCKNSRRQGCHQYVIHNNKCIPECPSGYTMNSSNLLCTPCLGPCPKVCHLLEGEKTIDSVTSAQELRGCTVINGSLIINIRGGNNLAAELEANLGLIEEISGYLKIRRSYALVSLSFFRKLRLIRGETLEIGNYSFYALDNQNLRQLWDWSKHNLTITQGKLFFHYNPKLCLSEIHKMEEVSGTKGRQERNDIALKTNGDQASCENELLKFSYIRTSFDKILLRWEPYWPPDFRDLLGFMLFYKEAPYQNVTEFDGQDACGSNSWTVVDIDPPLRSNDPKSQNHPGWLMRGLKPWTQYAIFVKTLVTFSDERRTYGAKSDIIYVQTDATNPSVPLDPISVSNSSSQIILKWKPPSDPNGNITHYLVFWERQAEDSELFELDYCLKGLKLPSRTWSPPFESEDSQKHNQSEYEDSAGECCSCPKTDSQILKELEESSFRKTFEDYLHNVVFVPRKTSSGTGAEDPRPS
Sequence of Insulin receptor (P06213 763-1382 limits assumed): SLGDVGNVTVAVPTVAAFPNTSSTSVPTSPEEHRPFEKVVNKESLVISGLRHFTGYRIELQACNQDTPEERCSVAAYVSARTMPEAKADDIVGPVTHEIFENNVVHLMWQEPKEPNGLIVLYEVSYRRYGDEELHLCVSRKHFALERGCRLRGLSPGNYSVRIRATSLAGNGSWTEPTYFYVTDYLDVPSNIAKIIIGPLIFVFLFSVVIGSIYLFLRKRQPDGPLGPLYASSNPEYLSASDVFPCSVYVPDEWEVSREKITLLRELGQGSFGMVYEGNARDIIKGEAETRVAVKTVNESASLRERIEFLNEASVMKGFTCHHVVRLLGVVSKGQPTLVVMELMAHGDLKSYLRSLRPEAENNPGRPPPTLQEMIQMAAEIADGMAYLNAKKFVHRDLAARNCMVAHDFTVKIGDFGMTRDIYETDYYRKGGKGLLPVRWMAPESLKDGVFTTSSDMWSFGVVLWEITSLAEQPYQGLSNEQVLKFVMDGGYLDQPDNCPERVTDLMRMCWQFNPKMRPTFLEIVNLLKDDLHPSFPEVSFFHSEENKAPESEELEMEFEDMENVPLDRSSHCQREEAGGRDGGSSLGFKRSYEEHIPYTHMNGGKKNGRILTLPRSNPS

For `CC(C)CNCc1ccc2c(c1)nc(NC(=O)c1ccc(-c3cn[nH]c3)s1)n2CC(C)(C)O`, the values for the IC50 in [1] and in series [2] were 360 nM and 86 nM, respectively.
`CC(C)(O)Cn1/c(=N/C(=O)c2ccc(-c3cn[nH]c3)s2)[nH]c2cc(CNCc3ccccc3)ccc21`: the results for the IC50 in series [1] and in series [2] were 480 nM and 37 nM, respectively.
Regarding `Cc1ncc(-c2ccc(C(=O)/N=c3\[nH]c4cc(CNc5ccccc5)ccc4n3CC(C)(C)O)s2)o1`, the IC50 in series [2] stood at 460 nM.
Take `CC(C)(O)Cn1/c(=N/C(=O)c2ccc(-c3cn[nH]c3)s2)[nH]c2cc(CN3CCCCC3CO)ccc21` (centres undefined): the IC50 in [3] was 3 nM; in series [4] it was 660 nM; in series [1] it was 1100 nM; in series [5] it was 58 nM.
In the case of `Cc1ncc(-c2ccc(C(=O)Nc3nc4cc(N(C)C(=O)c5ccccc5)ccc4n3CC(C)(C)O)s2)o1`, the IC50 in series [3] is 3 nM; in [4] it was 200 nM; in series [1], 940 nM; in series [5] it was 110 nM; in series [2] it was 440 nM; in series [7], 10000 nM. The amount in solution in [6] (solubility) came to 2 µg/mL (≈ 3.78 µM). In addition, in [8], the fraction unbound was 0.013.
Regarding `CN(C)Cc1ccc2c(c1)[nH]/c(=N\C(=O)c1ccc(-c3cn[nH]c3)s1)n2CC(C)(C)O`, the IC50 in series [2] stood at 130 nM.
On to `CC(C)(O)Cn1/c(=N/C(=O)c2ccc(-c3cn[nH]c3)s2)[nH]c2cc(CN3CCOCC3)ccc21`, for which the IC50 in [3] worked out at 2 nM; in series [4], 220 nM; in [1], 320 nM; in series [5], 13 nM; in [2], 230 nM.
On to `CC(C)(O)Cn1c(NC(=O)c2ccc(-c3cn[nH]c3)s2)nc2cc(CNc3ccccc3)ccc21`, for which the IC50 in [3] was 2 nM; in [4], 75 nM; in series [1] it was 1700 nM; in series [5] it was 21 nM; in series [2], 150 nM.
On to `CN(C)CCN(C)Cc1ccc2c(c1)[nH]/c(=N\C(=O)c1ccc(-c3cn[nH]c3)s1)n2CC(C)(C)O`, for which the IC50 in [1] came to 390 nM; in series [2], 150 nM.
For `Cc1ncc(-c2ccc(C(=O)Nc3nc4cc(CNC5CCCCC5)ccc4n3CC(C)(C)O)s2)o1`, the IC50 is 8 nM in series [3]; 940 nM in series [4]; 700 nM in [1]; 210 nM in series [5]; 180 nM in series [2].
As to `C[C@@H](N(C)Cc1ccc2c(c1)nc(NC(=O)c1ccc(-c3cn[nH]c3)s1)n2CC(C)(C)O)C(C)(C)C`, the IC50 is 1 nM in series [3]; 20 nM in [4]; 230 nM in [1]; 2 nM in series [5]; 64 nM in series [2].
`CC(C)(O)Cn1/c(=N/C(=O)c2ccc(-c3cn[nH]c3)s2)[nH]c2cc(CN3CCC(O)C3)ccc21` (centres undefined): the IC50 in series [3] worked out at 2 nM; in series [4], 310 nM; in series [1] it was 420 nM; in series [5], 130 nM.
`C[C@@H](NCc1ccc2c(c1)nc(NC(=O)c1ccc(-c3cn[nH]c3)s1)n2CC(C)(C)O)C(C)(C)C`: the IC50 in [3] was found to be 1 nM; in [4] it was 20 nM; in series [1] it was 93 nM; in [5] it was 3 nM; in series [2], 50 nM.
Consider `CN(Cc1cccnc1)Cc1ccc2c(c1)[nH]/c(=N\C(=O)c1ccc(-c3cn[nH]c3)s1)n2CC(C)(C)O`, for which the IC50 in series [1] turned out to be 310 nM; in [2] it was 91 nM.
As for `CC1COCC(C)N1Cc1ccc2c(c1)[nH]/c(=N\C(=O)c1ccc(-c3cn[nH]c3)s1)n2CC(C)(C)O` (centres undefined), the IC50 in series [3] stood at 1 nM; in series [4], 98 nM; in series [1], 320 nM; in [5] it was 3 nM; in series [2], 46 nM.
For the compound `C[C@H](N(C)Cc1ccc2c(c1)[nH]/c(=N\C(=O)c1ccc(-c3cn[nH]c3)s1)n2CC(C)(C)O)C(C)(C)C`, the IC50 in [3] turned out to be 1 nM; in series [4] it was 8 nM; in series [1], 400 nM; in series [5] it was 3 nM; in [2], 18 nM; in series [7], 690 nM.
Regarding `CCC(C)NCc1ccc2c(c1)nc(NC(=O)c1ccc(-c3cn[nH]c3)s1)n2CC(C)(C)O` (centres undefined), the IC50 turned out to be 2 nM in series [3]; 390 nM in series [4]; 600 nM in series [1]; 25 nM in [5]; 23 nM in [2].
`C[C@H](NCc1ccc2c(c1)[nH]/c(=N\C(=O)c1ccc(-c3cn[nH]c3)s1)n2CC(C)(C)O)C(C)(C)C`: the IC50 in series [3] was found to be 1 nM; in series [4] it was 13 nM; in series [1], 160 nM; in [5] it was 4 nM; in series [2], 20 nM; in series [7] it was 240 nM. The half-life in series [9] is 2.5 h. For the same compound, the Vd in [10] was found to be 11.6 L/kg. The compound further came in with a clearance in [11] of 53.1 mL/min/kg. Also, the values for the AUC(0-inf) in series [12] and in series [15] were 314 ng·h/mL and 659 ng·h/mL, respectively. Also, in series [13], the Tmax was found to be 1.2 h. Further, the Cmax in series [14] was found to be 92 ng/mL. This compound also returned a bioavailability in series [16] of 21%. For the same compound, the Activity result in series [17] and in series [18] was “Dose-dependent effect” in each case. Moreover, the figures for the concentration at 8 h in series [19], in series [20] and in series [21] were 1300 nM, 400 nM and 100 nM, respectively.
In the case of `CN(Cc1ccc2c(c1)nc(NC(=O)c1ccc(-c3cn[nH]c3)s1)n2CC(C)(C)O)C1CCCCC1`, the IC50 in series [3] came to 2 nM; in [4] it was 160 nM; in series [1], 480 nM; in series [5] it was 13 nM; in series [2], 59 nM.
As to `Cc1ncc(-c2ccc(C(=O)/N=c3\[nH]c4cc(CN(C)C5CCCCC5)ccc4n3CC(C)(C)O)s2)o1`, the IC50 worked out at 350 nM in series [1] and 230 nM in series [2].
Regarding `CC(C)(O)Cn1c(NC(=O)c2ccc(-c3cn[nH]c3)s2)nc2cc(CNC3CCCCC3)ccc21`, the IC50 in series [3] came out at 1 nM; in series [4], 99 nM; in series [1] it was 400 nM; in series [5], 20 nM; in series [2], 93 nM.
For `CC(C)(O)Cn1c(NC(=O)c2ccc(-c3cn[nH]c3)s2)nc2cc(CN)ccc21`, the IC50 in series [3] was 4 nM; in series [4], 900 nM; in series [1] it was 1200 nM; in [5], more than 5000 nM.
Turning to `CN(Cc1ccc2c(c1)[nH]/c(=N\C(=O)c1ccc(-c3cn[nH]c3)s1)n2CC(C)(C)O)c1ccccc1`, half-maximal inhibition in series [1] (IC50) required 5500 nM.
For `CC(C)(O)Cn1/c(=N/C(=O)c2ccc(-c3cn[nH]c3)s2)[nH]c2cc(CN3CCCCC3)ccc21`, the IC50 in series [3] was 3 nM; in [4], 250 nM; in series [1], 550 nM; in series [5] it was 11 nM; in [2], 120 nM.
The compound `CNCc1ccc2c(c1)[nH]/c(=N\C(=O)c1ccc(-c3cn[nH]c3)s1)n2CC(C)(C)O` showed an IC50 in [1] of 500 nM.
